GI50 and TGI data for twelve compounds are collected here from PubChem BioAssay (NCI).

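A five-concentration, 48-hour dose response in 96-well plates underlies each endpoint, interpolated linearly between surrounding concentrations. GI50 marks 50% less growth. TGI: total growth inhibition.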

Test systems include RXF 393 renal; COLO 205 colon; SK-MEL-2 melanoma; SN12C renal; UACC-257 melanoma; 786-0 renal; OVCAR-8 ovarian; DU-145 prostate; M14 melanoma.
Common to all, as to assay: inhibition of tumour cell growth, NCI panel, 48 h

For `COc1cc(-c2c3c(cn2S(=O)(=O)c2ccccc2)-c2nc(N)sc2CC3)cc(OC)c1OC`, the GI50 with RXF 393 renal was 1.04 µM; in the assay with COLO 205 colon, 1.14 µM; in the assay with SK-MEL-2 melanoma, 0.596 µM; in the assay on SN12C renal it was 4.45 µM; in the assay on UACC-257 melanoma, 10.3 µM; in the assay on 786-0 renal, 1.71 µM. Also, the GI50 in the assay with OVCAR-8 ovarian is 2.4 µM; with DU-145 prostate it was 1.54 µM; in the assay with M14 melanoma, 0.612 µM. Moreover, the TGI in the assay on RXF 393 renal is 14.5 µM; in the assay with COLO 205 colon it was 3.53 µM; in the assay on SK-MEL-2 melanoma, 12.7 µM; in the assay on SN12C renal it was over 100 µM; in the assay with UACC-257 melanoma, 60.1 µM; in the assay with 786-0 renal, 19.7 µM. The TGI in the assay on OVCAR-8 ovarian was 29.2 µM; in the assay on DU-145 prostate, 41.9 µM; in the assay with M14 melanoma, over 100 µM.
As for `[Cu+2].[Cu+2].[O-]c1ccccc1C=Nc1ccccc1[O-].[O-]c1ccccc1C=Nc1ccccc1[O-]`, the GI50 with COLO 205 colon was 2.26 µM; with SK-MEL-2 melanoma, 11.5 µM; with SN12C renal, 13.7 µM; with UACC-257 melanoma it was 10.4 µM; with 786-0 renal it was 7.24 µM; with OVCAR-8 ovarian, 8.16 µM. Further, the GI50 in the assay with M14 melanoma was 4.45 µM. Further, the TGI in the assay with COLO 205 colon came to 5.11 µM; in the assay with SK-MEL-2 melanoma, 24.4 µM; with SN12C renal, 27.3 µM; in the assay on UACC-257 melanoma, 22.3 µM; in the assay on 786-0 renal it was 20.3 µM; in the assay with OVCAR-8 ovarian, 31.6 µM. In the assay with M14 melanoma, this compound displayed a TGI of 15.3 µM.
For `CN(C)CCC1(C2=CCCC2)CC/C(=C\c2ccc3c(c2)OCO3)C1=O` (centres undefined), the TGI in the assay on RXF 393 renal turned out to be 21.3 µM; in the assay with COLO 205 colon, 47.7 µM; in the assay on SK-MEL-2 melanoma, 31.6 µM; in the assay on SN12C renal, 28.8 µM; with UACC-257 melanoma, 29 µM; in the assay with 786-0 renal it was 26.9 µM. Moreover, the values for the TGI in the assay on OVCAR-8 ovarian and with M14 melanoma were 29 µM and 28.3 µM, respectively.
As to `CCc1nc2c(O)ccc(O)c2nc1C`, the TGI in the assay with RXF 393 renal was 25.5 µM; in the assay with COLO 205 colon it was 7.26 µM; with SK-MEL-2 melanoma, 32.2 µM; in the assay on SN12C renal it was 29.6 µM; in the assay with UACC-257 melanoma it was 31.4 µM; with 786-0 renal, 26.3 µM. Besides, the TGI in the assay with OVCAR-8 ovarian amounted to 23.8 µM; in the assay with M14 melanoma it was 28.3 µM.
On to `Cc1c(/C=C2\CC/C(=C\c3[nH]c(C(=O)OC(C)(C)C)c(C)c3C)C2=O)[nH]c(C(=O)OC(C)(C)C)c1C`, for which the TGI in the assay with RXF 393 renal, in the assay on COLO 205 colon, in the assay on SK-MEL-2 melanoma, with SN12C renal, with UACC-257 melanoma and in the assay with 786-0 renal was over 100 µM throughout. Moreover, the TGI with OVCAR-8 ovarian and in the assay with M14 melanoma was over 100 µM each time.
Take `O=C(/C=C/c1ccc(OCCCCCCCCCCOc2ccc(/C=C/C(=O)c3ccc(Cl)cc3)cc2)cc1)c1ccc(Cl)cc1`: the TGI in the assay on RXF 393 renal, in the assay on COLO 205 colon, in the assay on SK-MEL-2 melanoma, with SN12C renal, in the assay with UACC-257 melanoma and with 786-0 renal was over 100 µM each time. This compound yielded a TGI in the assay with OVCAR-8 ovarian of over 100 µM.
In the case of `COc1cc2c(-c3nc4cc(Cl)c(F)cc4s3)cc(=O)oc2c(C)c1OC`, the GI50 in the assay on RXF 393 renal was 1.55 µM; in the assay with COLO 205 colon, 1.66 µM; with SK-MEL-2 melanoma it was 2.07 µM; in the assay with UACC-257 melanoma, 1.38 µM; in the assay with 786-0 renal, 1.02 µM; in the assay on OVCAR-8 ovarian, 1.5 µM. For the same compound, the GI50 in the assay on DU-145 prostate was 1.62 µM. Also, the TGI in the assay with RXF 393 renal came to 3.08 µM; in the assay with COLO 205 colon, 3.32 µM; in the assay with SK-MEL-2 melanoma it was 3.9 µM; in the assay on UACC-257 melanoma, 2.89 µM; in the assay with 786-0 renal, 2.21 µM; with OVCAR-8 ovarian, 3.47 µM. This compound also yielded a TGI in the assay with DU-145 prostate of 3.05 µM.
In the case of `COc1ccc2c(c1)Oc1nc(N)c(C#N)c(N)c1C2Sc1ccc(SC)cc1` (centres undefined), the GI50 is 1.72 µM with RXF 393 renal; 1.85 µM with COLO 205 colon; 1.7 µM in the assay with SK-MEL-2 melanoma; 1.64 µM with SN12C renal; 1.9 µM in the assay with UACC-257 melanoma; 1.66 µM in the assay with 786-0 renal. In addition, the GI50 in the assay with OVCAR-8 ovarian was 1.76 µM; in the assay on DU-145 prostate, 1.79 µM; with M14 melanoma, 1.76 µM. Besides, the TGI was found to be 3.11 µM in the assay on RXF 393 renal; 3.6 µM with COLO 205 colon; 3.28 µM in the assay with SK-MEL-2 melanoma; 3.06 µM with SN12C renal; 3.38 µM in the assay on UACC-257 melanoma; 3.06 µM in the assay on 786-0 renal. In addition, the TGI with OVCAR-8 ovarian was found to be 3.19 µM; in the assay on DU-145 prostate, 3.19 µM; in the assay with M14 melanoma, 3.33 µM.
On to `CN(C)CCNC(=O)c1ccc2ccc3cccnc3c2n1`, for which the TGI in the assay on RXF 393 renal was 27.3 µM; with COLO 205 colon, 23.9 µM; in the assay with SK-MEL-2 melanoma it was 29.3 µM; with SN12C renal, over 92.9 µM; with UACC-257 melanoma, 35.4 µM; in the assay on 786-0 renal it was over 100 µM. The figures for the TGI in the assay on OVCAR-8 ovarian and in the assay on M14 melanoma were over 100 µM and 33.1 µM, respectively.
Turning to `CC(=O)[CH-]C(=O)c1ccccc1.CC(=O)[CH-]C(=O)c1ccccc1.[Nd+3].[OH-].[OH3+]`, the GI50 in the assay with RXF 393 renal, in the assay on COLO 205 colon, with SK-MEL-2 melanoma, in the assay on SN12C renal, in the assay with UACC-257 melanoma and with 786-0 renal was over 100 µM each time. Moreover, the GI50 in the assay with OVCAR-8 ovarian and with M14 melanoma was over 100 µM each time. The TGI in the assay with RXF 393 renal, in the assay on COLO 205 colon, in the assay with SK-MEL-2 melanoma, in the assay with SN12C renal, in the assay on UACC-257 melanoma and in the assay on 786-0 renal was over 100 µM in each case. In addition, the TGI with OVCAR-8 ovarian and with M14 melanoma was over 100 µM each time.
As to `CS(=O)(=O)C1S(=O)(=O)OCCOS1(=O)=O`, the TGI with RXF 393 renal, with COLO 205 colon, in the assay on SN12C renal, in the assay on UACC-257 melanoma, with 786-0 renal and in the assay with OVCAR-8 ovarian was over 100 µM throughout. In the assay on M14 melanoma, this compound gave a TGI of over 100 µM.
`COc1cc2c(cc1OC)C1c3ccccc3C(C#N)(C2)N(C(=O)c2ccccc2)C1O` (centres undefined): the TGI in the assay with RXF 393 renal is over 100 µM; with COLO 205 colon, 53.1 µM; with SK-MEL-2 melanoma, over 100 µM; in the assay on SN12C renal, over 100 µM; with UACC-257 melanoma, over 100 µM; with 786-0 renal it was over 100 µM. In addition, the TGI in the assay with OVCAR-8 ovarian and in the assay with M14 melanoma was over 100 µM in each case.
